These results are taken from PMC4583781, “Heteropentanuclear Oxalato-Bridged nd–4f (n=4, 5) Metal Complexes with NO Ligand: Synthesis, Crystal Structures, Aqueous Stability and Antiproliferative Activity” (Chemistry (Weinheim an Der Bergstrasse, Germany), 2015).

As a reminder, the IC50 is the concentration needed to halve the response being measured.

The test system of one data set is DLD-1 colon cancer model. Further details: method as in PMID 16343446, PMID 17445775. To be noted: cited from earlier work.
Data set [1] has as its system cellular proteins of A549 cells. In words: Ru/Os binding to cellular proteins by ICP-MS. In kind it is cell-based, human. To be noted: 24 h versus 6 h, 0.5×IC50, ICP-MS.
The subject of data set [2] is A549 cells (human alveolar basal adenocarcinoma). In words: MTT assay, antiproliferative activity in A549 cells. To be noted: 48 h treatment, 7000 cells per well, read-out: IC50 A549 (7000 c per w). In kind it is cell-based. How it is done: (§1) Human cervical carcinoma (HeLa), human alveolar basal adenocarcinoma (A549), and normal human fetal lung fibroblast cell line (MRC-5) were maintained as monolayer culture in the Roswell Park Memorial Institute (RPMI) 1640 nutrient medium (Sigma Chemicals Co, USA). RPMI 1640 nutrient medium was prepared in sterile ionized water, supplemented with penicillin (192 IU mL^−1), streptomycin (200 μg mL^−1), 4-(2-hydroxyethyl)piperazine-1-ethanesulfonic acid (HEPES) (25 mM), L-glutamine (3 mM) and 10 % of heat-inactivated fetal calf serum (FCS; pH 7.2). The cells were grown at 37 °C in 5 % CO2 and humidified air atmosphere, by twice weekly subculture.
(§2) Antiproliferative activity of the ruthenium and osmium complexes was determined using 3-(4,5-dimethylthiazol-yl)-2,5-diphenyltetrazolium bromide (MTT, Sigma–Aldrich) assay.[49] Cells were seeded into 96-well cell culture plates (Thermo Scientific Nunc), at a cell density of 3000 cells per well (HeLa), 7000 cells per well (A549), and 5000 cells per well (MRC-5), in 100 μL of culture medium. After 24 h of growth, cells were exposed to the serial dilutions of the tested complexes. Complexes were dissolved in 1 % DMSO: complex 1 at a concentration of 4 mM, complexes 2–5 at a concentration of 1 mM, complexes 6–9 at a concentration of 0.6 mM, as stocks immediately prior use, and afterwards diluted with nutrient medium to desired final concentrations (in range up to 200 μM). Each concentration was tested in triplicate. After incubation periods of 48 h, 20 μL of MTT solutions (5 mg mL^−1 in phosphate buffer solution, pH 7.2) were added to each well. Samples were incubated for 4 h at 37 °C, with 5 % CO2 in a humidified atmosphere. Formazan crystals were dissolved in 100 μL of 10 % sodium dodecyl sulfate (SDS). Absorbances were recorded after 24 h, on an ELISA reader (ThermoLabsystems Multiskan EX 200–240 V), at the wavelength of 570 nm. The IC50 values, defined as the concentrations of the compound causing 50 % cell growth inhibition, were estimated from the dose-response curves.
(§3) The antiproliferative activity of the ruthenium and osmium lanthanide complexes 1–9 was evaluated for 48 h of continuous drug action, using colorimetric MTT assay. The study was performed in two human neoplastic cell lines (HeLa, A549), and human fetal lung fibroblast cell line (MRC-5), which was used as noncancerous model for in vitro toxicity evaluation. The results are shown in Table 5 in terms of IC50 values for 48 h incubation period. IC50 values are calculated as mean values obtained from two to three independent experiments and are presented with their standard deviations.
(Tetrazolium dyes change colour on reduction, which living cells bring about.)

A further data set concerns A549 cells. As to the kind of experiment: Total intracellular Ru/Os accumulation by ICP-MS. In kind it is cell-based, human. The note with it: 6 and 24 h, 0.5×IC50 of complexes 4 and 8, ICP-MS, Ru (4) relative to Os (8).
For data set [3], the system named is HeLa cells (human cervical carcinoma). In words: MTT assay, antiproliferative activity in HeLa cells. The class given is cell-based. The note with it: 48 h treatment, 3000 cells per well, read-out: IC50 HeLa (3000 c per w). How it is done:
as §1, §2, §3

For data set [4], the system named is cellular DNA of A549 cells. In words: Ru/Os binding to cellular DNA by ICP-MS. The class given is cell-based, human. To be noted: 6 h treatment, 0.5×IC50, ICP-MS.
The test system of data set [5] is MRC-5 cells (normal human fetal lung fibroblast). As to the kind of experiment: MTT assay, cytotoxicity in noncancerous MRC-5 cells. In kind it is cell-based. The note with it: 48 h treatment, 5000 cells per well, read-out: IC50 MRC-5 (5000 c per w). As for the experimental part: as §1, §2, §3
Data set [6] is described as follows: Stability in aqueous solution by UV/Vis spectroscopy. In kind it is physicochemical. To be noted: UV/Vis spectroscopy over 96 h. How it is done:
Elemental analyses were performed by the microanalytical service of the Faculty of Chemistry of the University of Vienna on a Perkin–Elmer 2400 CHN Elemental Analyzer. UV/Vis spectra were recorded at 25 °C using a Perkin–Elmer Lambda 650 spectrometer equipped with an optical cell of 1 cm path-length in the wavelength range of 200 to 800 nm in combination with a Perkin–Elmer PTP-6 Peltier System. Electrospray ionization (ESI) mass spectrometry measurements were conducted on a Bruker HCT ion trap (Bruker Daltonics GmbH) by using methanol as a solvent. MIR spectra were recorded on a Perkin–Elmer 370 FTIR 2000 instrument using an ATR (attenuated total reflection) unit in the range of 4000–400 cm^−1. Phosphorescence emission spectra were recorded with a Horiba FluoroMax-4 spectrofluorimeter and the data were processed using the FluorEssence v3.5 software package.
The stability of the heteropentanuclear complexes 5 and 9 in aqueous solution has been investigated by UV/Vis spectroscopy over 96 h.

Data set [7] is described as follows: Stability of pentanuclear assembly in aqueous solution, IR comparison of residue. The class given is physicochemical. To be noted: aqueous solution evaporated to dryness after standing 24 h in air. How it is done:
To exclude immediate dissociation of the pentanuclear assembly with release of a metal–oxalate fragment an aqueous solution of 5 was evaporated to dryness after standing for 24 h in air and the IR spectra of the residue and freshly prepared compound 5 were compared.

In the case of `N#C[S-].N#C[S-].N#C[S-].[La+3].c1cnc2c(c1)ccc1cccnc12.c1cnc2c(c1)ccc1cccnc12.c1cnc2c(c1)ccc1cccnc12` [La(phen)3(NCS)3], the “Efficacy against DLD-1 colon cancer model in vivo” value with DLD-1 colon cancer model is recorded as “highly effective”.

As for “(nBu4N)5[Tb(EtOH){RuCl3(μ-ox)(NO)4}] [complex 4]”, the “Change of metal-protein binding with treatment prolongation” value in data set [1] is “increased to a great extent”. The IC50 in data set [2] worked out at 22.4 ± 3.1 µM; in data set [3], 20 ± 2.4 µM; in data set [5], 11.9 ± 0.4 µM. Further, in the data set with A549 cells, the “Total intracellular accumulation of ruthenium versus osmium” value is “five- to eightfold greater”. Further, in data set [4], the “Metal (Ru/Os) bound to cellular DNA” value is 63.4(±1.8) pg metal μg^−1 DNA.

Regarding “(nBu4N)5[Y{OsCl3(μ-ox)(NO)}4] [complex 6]”, the values for the IC50 in data set [2], in [3] and in [5] were > 200 µM, 152 ± 24 µM and 115 ± 10.7 µM, respectively.

For (nBu4N)2[RuCl3(ox)(NO)] [complex 1], the IC50 in [2] came out at 55 ± 1.6 µM; in [3], 55.9 ± 5.6 µM; in [5] it was 18.1 ± 6.5 µM.

For “(nBu4N)5[Dy(EtOH){RuCl3(μ-ox)(NO)}4] [complex 5]”, the IC50 in [2] stood at 47 ± 6.7 µM; in [3] it was 20 ± 2.1 µM; in data set [5] it was 13.2 ± 0.4 µM. Further, in data set [6], the “Stability in aqueous solution (change of optical spectra)” value is recorded as “no change in the optical spectra observed”. In addition, the “IR spectra of residue versus freshly prepared compound” value in data set [7] is “no differences in the spectra observed”.

In the case of “(nBu4N)5[Gd(EtOH){RuCl3(μ-ox)(NO)}4] [complex 3]”, the IC50 in [2] was 26.5 ± 4 µM; in data set [3], 29.1 ± 0.8 µM; in data set [5], 11.1 ± 0.1 µM.

In the case of “(nBu4N)5[Y{RuCl3(μ-ox)(NO)}4] [complex 2]”, the figures for the IC50 in data set [2], in data set [3] and in data set [5] were 56.3 ± 1.1 µM, 17.9 ± 0.4 µM and 12 ± 0.3 µM, respectively.
